Reference: article PMC12814486 (Bioorganic & medicinal chemistry, 2025)
In brackets after ≈: the same amount, converted by molar mass.

Assays:
human FAAH = biological target: T1, human FAAH (Homo sapiens, UniProt O00519); test: FAAH inhibition assay; assay type: biochemical
T1 sequence (O00519 1-579): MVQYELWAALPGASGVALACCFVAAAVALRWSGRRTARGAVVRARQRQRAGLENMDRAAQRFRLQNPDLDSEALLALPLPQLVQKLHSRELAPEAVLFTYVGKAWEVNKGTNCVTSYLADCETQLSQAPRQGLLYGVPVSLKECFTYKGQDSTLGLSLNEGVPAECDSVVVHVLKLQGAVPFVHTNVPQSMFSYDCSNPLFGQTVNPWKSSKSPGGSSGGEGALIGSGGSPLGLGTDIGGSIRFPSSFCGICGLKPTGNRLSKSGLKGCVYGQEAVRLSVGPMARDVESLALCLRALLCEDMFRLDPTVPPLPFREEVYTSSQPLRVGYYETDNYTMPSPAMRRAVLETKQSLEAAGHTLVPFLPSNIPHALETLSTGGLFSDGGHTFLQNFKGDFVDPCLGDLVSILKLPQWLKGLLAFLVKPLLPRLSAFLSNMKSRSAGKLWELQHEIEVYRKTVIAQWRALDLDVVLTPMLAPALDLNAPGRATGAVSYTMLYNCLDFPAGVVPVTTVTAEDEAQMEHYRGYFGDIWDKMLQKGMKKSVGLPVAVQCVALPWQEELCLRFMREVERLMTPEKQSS

human sEH = biological target: T2, human sEH (Homo sapiens, UniProt P34913); test: sEH inhibition assay; assay type: biochemical
T2 sequence (P34913 1-555): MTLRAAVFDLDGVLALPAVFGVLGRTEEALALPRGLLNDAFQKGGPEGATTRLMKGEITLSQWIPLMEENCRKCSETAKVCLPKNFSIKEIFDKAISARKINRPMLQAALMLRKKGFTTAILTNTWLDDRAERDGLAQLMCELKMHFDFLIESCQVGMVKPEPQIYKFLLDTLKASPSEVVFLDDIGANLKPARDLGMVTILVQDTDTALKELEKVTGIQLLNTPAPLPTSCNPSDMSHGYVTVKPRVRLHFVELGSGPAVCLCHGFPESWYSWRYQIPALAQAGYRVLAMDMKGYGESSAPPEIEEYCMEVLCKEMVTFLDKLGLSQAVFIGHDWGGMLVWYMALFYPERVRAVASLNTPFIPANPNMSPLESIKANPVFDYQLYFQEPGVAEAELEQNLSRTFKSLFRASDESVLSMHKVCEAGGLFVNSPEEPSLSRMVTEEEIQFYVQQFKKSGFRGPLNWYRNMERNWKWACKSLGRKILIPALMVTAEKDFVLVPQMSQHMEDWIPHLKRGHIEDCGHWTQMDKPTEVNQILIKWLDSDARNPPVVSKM

mouse sEH = biological target: T3, mouse sEH (Mus musculus, UniProt P34914); test: sEH inhibition assay; assay type: biochemical
T3 sequence (P34914 1-554): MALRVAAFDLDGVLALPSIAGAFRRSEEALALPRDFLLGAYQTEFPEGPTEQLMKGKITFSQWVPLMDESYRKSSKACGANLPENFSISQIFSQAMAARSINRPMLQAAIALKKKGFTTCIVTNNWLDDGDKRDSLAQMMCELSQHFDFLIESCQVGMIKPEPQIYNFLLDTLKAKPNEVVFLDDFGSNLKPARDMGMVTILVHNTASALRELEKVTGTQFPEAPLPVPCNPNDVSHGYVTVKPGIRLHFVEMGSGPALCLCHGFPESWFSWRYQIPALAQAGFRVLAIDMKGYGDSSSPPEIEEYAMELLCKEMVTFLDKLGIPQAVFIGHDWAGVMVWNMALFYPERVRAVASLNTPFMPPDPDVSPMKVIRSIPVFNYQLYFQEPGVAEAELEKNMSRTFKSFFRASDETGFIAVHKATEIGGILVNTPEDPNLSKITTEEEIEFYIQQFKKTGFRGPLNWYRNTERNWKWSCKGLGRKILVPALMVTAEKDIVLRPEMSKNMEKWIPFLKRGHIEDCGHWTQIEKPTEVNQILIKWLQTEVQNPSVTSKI

rat sEH = biological target: T4, rat sEH (Rattus norvegicus, UniProt P80299); test: sEH inhibition assay; assay type: biochemical
T4 sequence (P80299 1-554): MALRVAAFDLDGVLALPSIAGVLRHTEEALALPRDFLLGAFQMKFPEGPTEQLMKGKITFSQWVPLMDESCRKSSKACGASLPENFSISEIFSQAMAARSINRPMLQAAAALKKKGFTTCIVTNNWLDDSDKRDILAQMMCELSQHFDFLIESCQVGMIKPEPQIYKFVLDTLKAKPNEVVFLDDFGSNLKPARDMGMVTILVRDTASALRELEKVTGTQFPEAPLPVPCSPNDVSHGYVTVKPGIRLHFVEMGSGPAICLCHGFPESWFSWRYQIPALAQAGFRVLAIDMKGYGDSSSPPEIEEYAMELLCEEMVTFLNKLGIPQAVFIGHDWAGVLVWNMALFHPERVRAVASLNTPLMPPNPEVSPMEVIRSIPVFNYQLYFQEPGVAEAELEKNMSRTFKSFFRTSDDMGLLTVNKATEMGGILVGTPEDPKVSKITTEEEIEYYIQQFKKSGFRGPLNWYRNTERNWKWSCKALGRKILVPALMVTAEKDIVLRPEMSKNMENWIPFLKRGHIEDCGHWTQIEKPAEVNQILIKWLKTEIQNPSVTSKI

Solubility assay = assay type: physicochemical; settings: sodium phosphate buffer, pH 7.4, aqueous buffer, kinetic from dmso stock
microsomal EH = biological target: T5, microsomal EH (Homo sapiens, UniProt P07099); test: Microsomal EH inhibition; assay type: biochemical; settings: see Supplemental Data
T5 sequence (P07099 1-455): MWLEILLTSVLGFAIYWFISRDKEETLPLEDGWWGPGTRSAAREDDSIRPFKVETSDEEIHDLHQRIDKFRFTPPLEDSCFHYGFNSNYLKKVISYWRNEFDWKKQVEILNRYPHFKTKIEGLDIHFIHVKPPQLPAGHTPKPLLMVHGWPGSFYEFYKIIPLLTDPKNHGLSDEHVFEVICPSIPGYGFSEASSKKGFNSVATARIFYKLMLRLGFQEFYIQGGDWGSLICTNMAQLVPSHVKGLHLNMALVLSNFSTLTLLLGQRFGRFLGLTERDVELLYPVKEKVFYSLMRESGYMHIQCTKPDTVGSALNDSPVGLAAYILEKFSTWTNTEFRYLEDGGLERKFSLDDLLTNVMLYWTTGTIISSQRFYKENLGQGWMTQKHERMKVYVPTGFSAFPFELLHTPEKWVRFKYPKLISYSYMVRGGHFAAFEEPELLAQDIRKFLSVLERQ

EH3 = biological target: T6, EH3 (Homo sapiens, UniProt Q9H6B9); test: EH3 inhibition; assay type: biochemical; settings: see Supplemental Data
T6 sequence (Q9H6B9 1-360): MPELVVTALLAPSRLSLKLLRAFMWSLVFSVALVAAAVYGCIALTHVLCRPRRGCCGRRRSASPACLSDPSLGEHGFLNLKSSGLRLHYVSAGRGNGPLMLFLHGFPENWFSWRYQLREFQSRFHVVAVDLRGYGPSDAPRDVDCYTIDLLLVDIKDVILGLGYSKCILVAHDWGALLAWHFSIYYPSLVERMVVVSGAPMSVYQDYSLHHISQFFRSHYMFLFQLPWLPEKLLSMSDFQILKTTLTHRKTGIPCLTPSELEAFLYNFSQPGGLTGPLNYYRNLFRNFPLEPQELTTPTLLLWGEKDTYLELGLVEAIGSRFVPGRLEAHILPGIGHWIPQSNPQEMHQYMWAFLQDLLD

- IC50 (human FAAH): > 10000 nM
- IC50 (human sEH): 19.4 nM
- IC50 (mouse sEH): 9 nM
- IC50 (rat sEH): 21.8 nM
- solubility (Solubility assay): 31 to 63 µM (≈ 17.3 to 35.1 µg/mL)
- inhibition of microsomal EH (microsomal EH): does not inhibit
- inhibition of EH3 (EH3): does not inhibit
Structure (SMILES): COc1cn2c(-c3ccc(NC(=O)C4CCN(S(=O)(=O)c5ccccc5Cl)CC4)cc3)nnc2c(OC)n1 [Compound 4r, 1-((2-chlorophenyl)sulfonyl)-N-(4-(6,8-dimethoxy-[1,2,4]triazolo[4,3-a]pyrazin-3-yl)phenyl)piperidine-4-carboxamide]
